From ChEMBL document CHEMBL5360560, “Anti-Vibrio potential of natural products from marine microorganisms” (Eur J Med Chem, 2023)
Values after ≈ are worked out from the molar mass of the structure shown.

Tests used:
Vibrio anguillarum [1] = experiment: Antibacterial activity against Vibrio anguillarum assessed as bacterial growth inhibition; assay type: functional
Vibrio harveyi [2] = experiment: Antibacterial activity against Vibrio harveyi assessed as bacterial growth inhibition; assay type: functional
Vibrio parahaemolyticus [3] = experiment: Antimicrobial activity against Vibrio parahaemolyticus assessed as bacterial growth inhibition by broth dilution assay; assay type: functional
Vibrio anguillarum [4] = experiment: Antimicrobial activity against Vibrio anguillarum assessed as bacterial growth inhibition by broth dilution assay; assay type: functional
Vibrio alginolyticus [5] = experiment: Antimicrobial activity against Vibrio alginolyticus assessed as bacterial growth inhibition by broth dilution assay; assay type: functional
Vibrio anguillarum [6] = experiment: Antimicrobial activity against Vibrio anguillarum assessed as bacterial growth inhibition; assay type: functional
Vibrio harveyi [7] = experiment: Antimicrobial activity against Vibrio harveyi assessed as bacterial growth inhibition; assay type: functional
Vibrio anguillarum [8] = experiment: Antimicrobial activity against Vibrio anguillarum assessed as zone of inhibition per disc at 100 ug measured after 24 hrs by disc diffusion assay; assay type: functional; conditions: read-out: IZ
Vibrio harveyi [9] = experiment: Antimicrobial activity against Vibrio harveyi assessed as bacterial growth inhibition by microplate reader assay; assay type: functional
Vibrio anguillarum [10] = experiment: Antimicrobial activity against Vibrio anguillarum assessed as bacterial growth inhibition by microplate reader assay; assay type: functional
Vibrio harveyi [11] = experiment: Antimicrobial activity against Vibrio harveyi BB120 assessed as bacterial growth inhibition by bioluminescence based Quorum-Sensing assay; assay type: functional, organism-based
Vibrio anguillarum [12] = experiment: Antimicrobial activity against Vibrio anguillarum QDIO-6 assessed as bacterial growth inhibition by microtiter plate assay; assay type: functional
Vibrio alginolyticus [13] = experiment: Antimicrobial activity against Vibrio alginolyticus assessed as zone of inhibition; assay type: functional
Vibrio parahaemolyticus [14] = experiment: Antimicrobial activity against Vibrio parahaemolyticus assessed as zone of inhibition; assay type: functional
Vibrio vulnificus [15] = experiment: Antimicrobial activity against Vibrio vulnificus assessed as bacterial growth inhibition; assay type: functional
Vibrio vulnificus [16] = experiment: Antimicrobial activity against Vibrio vulnificus MCCC E1758 assessed as bacterial growth inhibition by resazurin dye based assay; assay type: functional
Vibrio parahaemolyticus [17] = experiment: Antimicrobial activity against Vibrio parahaemolyticus assessed as bacterial growth inhibition; assay type: functional
Vibrio harveyi [18] = experiment: Antimicrobial activity against Vibrio harveyi QDIO-7 assessed as bacterial growth inhibition by microplate reader assay; assay type: functional
Vibrio parahaemolyticus [19] = experiment: Antimicrobial activity against Vibrio parahaemolyticus ATCC 17802 assessed as bacterial growth inhibition by microplate reader assay; assay type: functional

## CC(O)C(Cl)C1=C[C@H]([C@H](C)O)OC1=O (stereo partly specified)
Vibrio anguillarum [1]
  MIC: 0.5 µg/mL (≈ 2.27 µM)
Vibrio harveyi [2]
  MIC: 32 µg/mL (≈ 145 µM)

## CC(=O)O[C@H]1CC[C@@]2(C)[C@@H](CC[C@H]3Cc4c([nH]c5ccccc45)[C@@]32C)[C@]1(C)CC[C@@H](O)C(C)(C)O
Vibrio parahaemolyticus [3]
  MIC: 12.5 µM
Vibrio anguillarum [4]
  MIC: 12.5 µM
Vibrio alginolyticus [5]
  MIC: 12.5 µM

## C=C(C)[C@H]1COc2c(C)cc3oc4c([C@@H](OC)[C@@H](O)C(=C)C)ccc(O)c4c(=O)c3c2[C@@H]1OC(C)=O
Vibrio parahaemolyticus [3]
  MIC: 1.56 µM
Vibrio anguillarum [4]
  MIC: 1.56 µM
Vibrio alginolyticus [5]
  MIC: 1.56 µM

## COc1c(Cl)c(O)cc2c1C(=O)c1c(O)cc(COC(C)=O)cc1C2=O
Vibrio parahaemolyticus [3]
  MIC: 10 µM

## O=C(O)c1cn(C2CC2)c2cc(N3CCNCC3)c(F)cc2c1=O [CIPROFLOXACIN]
Vibrio anguillarum [6]
  MIC: 20 µM
Vibrio harveyi [7]
  MIC: 32 µg/mL (≈ 96.6 µM)
Vibrio anguillarum [8]
  zone of inhibition at 100 µg/disc: 26 mm

## C[C@H]1CC[C@H]2[C@@H](C=C[C@H](C)[C@]2(C)C(=O)CCO)[C@@H]1O
Vibrio harveyi [9]
  MIC: 4 µg/mL
Vibrio anguillarum [10]
  MIC: 4 µg/mL

## C/C(=C\[C@H]1OC(=O)[C@H](C)[C@@H]1C)[C@H]1CCC2=C3C=CC4=CC(=O)CC[C@]4(C)[C@H]3CC[C@@]21C
Vibrio parahaemolyticus [3]
  MIC: 25 µg/mL
Vibrio anguillarum [4]
  MIC: 25 µg/mL
Vibrio alginolyticus [5]
  MIC: 25 µg/mL

## C[C@@]12C=C[C@@H]3C[C@H](CO)CC[C@@H]3[C@]1(C)C(=O)C=CO2
Vibrio harveyi [9]
  MIC: 4 µg/mL
Vibrio anguillarum [10]
  MIC: 4 µg/mL

## COC(=O)C[C@H](O)COC(=O)/C=C/CCl
Vibrio harveyi [11]
  IC50: 14.6 µM

## COc1ccc2c3c4n(c2c1)C(C=C(C)C)OOC(C)(C)C[C@@H]4N1C(=O)[C@@H]2CCCN2C(=O)[C@]1(O)[C@H]3O (stereo partly specified)
Vibrio harveyi [7]
  MIC: 16 µg/mL (≈ 31.3 µM)

## C[C@@]1(O)C=C[C@H]2C[C@@H](CO)CC[C@@H]2[C@@]1(C)C(=O)CCO
Vibrio harveyi [9]
  MIC: 4 µg/mL
Vibrio anguillarum [10]
  MIC: 4 µg/mL

## CCCCCc1cc(O)c2ccccc2n1
Vibrio harveyi [2]
  MIC: 4 µg/mL (≈ 18.6 µM)

## C[C@@H]1CCCCC2=C(O)C(=O)C[C@H]2C(=O)O1
Vibrio anguillarum [12]
  MIC: 2 µg/mL

## O=C1N[C@@H]2c3nc4ccccc4c(=O)n3[C@H]1CC21C(=O)Nc2ccccc21 (stereo partly specified)
Vibrio harveyi [7]
  MIC: 16 µg/mL (≈ 44.6 µM)

## CO[C@@H]1CC(=O)C/C=C/[C@@H](O)CC(=O)O[C@H](C)C1
Vibrio parahaemolyticus [3]
  MIC: 12.5 µM

## C[C@@H]1Cc2ccc(O)c(O)c2C(=O)O1
Vibrio anguillarum [1]
  MIC: 0.5 µg/mL (≈ 2.57 µM)
Vibrio harveyi [2]
  MIC: 32 µg/mL (≈ 165 µM)

## O=C1N[C@H](Cc2ccccc2)C(=O)N2C[C@@H](O)C[C@@H]12
Vibrio alginolyticus [13]
  inhibition zone (IZ): 20 mm
Vibrio parahaemolyticus [14]
  inhibition zone (IZ): 12 mm

## CC(C)C[C@@H]1NC(=O)[C@H]2C[C@H](O)CN2C1=O
Vibrio alginolyticus [13]
  inhibition zone (IZ): 20 mm
Vibrio parahaemolyticus [14]
  inhibition zone (IZ): 12 mm

## COc1cc(O)c2c(=O)c(C)c(C)oc2c1O
Vibrio vulnificus [15]
  MIC: 32 µg/mL (≈ 135 µM)

## C=C(C)[C@H]1COc2c(C)cc3oc4c(C[C@H](OC(C)=O)C(C)(C)O)ccc(O)c4c(=O)c3c2[C@@H]1O
Vibrio parahaemolyticus [3]
  MIC: 1.56 µM
Vibrio anguillarum [4]
  MIC: 1.56 µM
Vibrio alginolyticus [5]
  MIC: 1.56 µM

## CCCCCC(=O)NCCc1ccccc1
Vibrio harveyi [11]
  IC50: 99 µM

## COC(=O)[C@H](O)CS[C@H]1CC(=O)O[C@H](C)CCCCCC[C@@H]1O
Vibrio anguillarum [12]
  MIC: 4 µg/mL

## CCOC(=O)Cc1cc(OC)cc(OC)c1C(=O)CC
Vibrio vulnificus [16]
  MIC: 15.6 µg/mL (≈ 55.7 µM)

## C=C(C)[C@H]1COc2c(C)cc3oc4c(C[C@H](O)C(C)(C)O)ccc(O)c4c(=O)c3c2[C@@H]1O [TAJIXANTHONEHYDRATE]
Vibrio parahaemolyticus [3]
  MIC: 1.56 µM
Vibrio anguillarum [4]
  MIC: 1.56 µM
Vibrio alginolyticus [5]
  MIC: 1.56 µM

## O=C1N[C@@H](Cc2ccccc2)C(=O)N2CCC[C@@H]12
Vibrio anguillarum [8]
  zone of inhibition at 100 µg/disc: 25 mm

## C=C(C)[C@H]1COc2c(C)cc3oc4c([C@@H](OC)[C@@H](O)C(C)(C)O)ccc(O)c4c(=O)c3c2[C@@H]1OC(C)=O
Vibrio parahaemolyticus [3]
  MIC: 1.56 µM
Vibrio anguillarum [4]
  MIC: 1.56 µM
Vibrio alginolyticus [5]
  MIC: 1.56 µM

## CC[C@@H](C)[C@@H](O)/C=C/C=C/CC[C@@H](C)C[C@H](C)[C@H]1C[C@@H](O)[C@H](C)CC/C=C/[C@H](C)C/C=C(\C)[C@H](O)CCC[C@@H](OC)[C@H](C)/C=C/C(=O)O1
Vibrio parahaemolyticus [17]
  MIC: 1.56 µg/mL (≈ 2.32 µM)

## CCCCc1cc(O)c2ccccc2n1
Vibrio harveyi [2]
  MIC: 0.5 µg/mL (≈ 2.48 µM)

## CC[C@H](C)[C@@H]1NC(=O)[C@@H](Cc2ccccc2)n2c1nc1c(c2=O)C=CC=CO1
Vibrio harveyi [18]
  MIC: 64 µg/mL

## C=C(C)[C@H]1COc2c(C)cc3oc4c([C@@H](OC)[C@@H](O)C(=C)C)ccc(O)c4c(=O)c3c2[C@@H]1O
Vibrio parahaemolyticus [3]
  MIC: 1.56 µM
Vibrio anguillarum [4]
  MIC: 1.56 µM
Vibrio alginolyticus [5]
  MIC: 1.56 µM

## CC[C@H](C)C[C@H](C)/C=C(\C)c1cc(=O)cc(O)o1
Vibrio parahaemolyticus [3]
  MIC: 6.25 µg/mL

## C[C@@H]1CC[C@@H]2[C@H](C=C[C@](C)(O)[C@@]2(C)C(=O)CCO)C1
Vibrio harveyi [9]
  MIC: 4 µg/mL
Vibrio anguillarum [10]
  MIC: 4 µg/mL

## C[C@H](Cl)[C@@H](O)C1=C[C@H](O)[C@@H](C)OC1=O [CHLOROHYDROASPYRONE B]
Vibrio anguillarum [1]
  MIC: 0.5 µg/mL (≈ 2.27 µM)
Vibrio harveyi [2]
  MIC: 32 µg/mL (≈ 145 µM)

## CCC[C@@H]1C(C)=C[C@@H]2C[C@H](C)CC[C@H]2[C@]1(C)C(=O)C1=C(O)C(=O)NC1=O
Vibrio anguillarum [6]
  MIC: 12.5 µg/mL

## C[C@@H]1C[C@H](O)CC(=O)C/C=C/[C@@H](O)CC(=O)O1
Vibrio parahaemolyticus [3]
  MIC: 25 µM

## O=C1c2cccc(O)c2C(=O)c2c1cc(O)c(C(CO)CCO)c2O (stereo unspecified)
Vibrio parahaemolyticus [19]
  MIC: 24 µg/mL
